Columns and labels:
[1] = tested on: lactic acid induced peripheral circulatory disturbance in rats; experiment: Rat model of lactic acid induced peripheral circulatory disturbance (lesion score); format: in vivo; details: for Score of lesion: mean ± S.E.
Source text: Peripheral arterial obstructions including clinical arteriosclerosis obliterans (ASO) are, in common, chronic diseases, which often cause ulcer or necrosis in lower limbs, and lesions are worsened by arterial thrombotic infarcts upstream of the lesions. Therefore, the target of the treatment for the above diseases is to inhibit the progress and to eliminate the ischemic symptoms. Antiplatelet drugs and anticoagulants are often used therefor. […] ID3016511 (Compound 115), which is one of the compounds according to the present invention, is selected as an example and administered daily to a rat model of lactic acid induced peripheral circulatory disturbance used as an animal model of peripheral arterial obstruction to examine the drug's therapeutic effect.
13-week old Wister male rats were used in test groups of 10 rats. Each rat was fixed in a face-up position under anesthesia by 40 mg/kg of intraperitoneally administered pentobarbital sodium. The left femoral region was then incised and 0.1 ml of 5% lactic acid solution was administered into the femoral artery. Adhesives were applied dropwise at the lactic acid administered site for blood stanching. Thereafter, a penicillin G solution was added dropwise to prevent infections and the incised part was sutured. […] The solvent and the test solution were orally administered. Administration was carried out 2 hours before lactic acid administration and, thereafter, twice a day at an interval of at least 7 hours for 13 days repeatedly. […] The positive control material was administered 3 hours before the lactic acid administration, and it was repeatedly orally administered twice a day for 13 days in the same way as the above test compound. The progress of lesion on legs and feet was observed 3, 7, and 14 days after the lactic acid administration and the results were scored from 0 to 4 based on the following criteria:
1: nigrities limited to the tiptoe
2: nigrities reaching toe
Each toe was scored and the sum of scores for each toe was determined as a lesion index. When the damage reached the sole, 5 points were added.
The significant difference between the control group and the test material group was assayed by the non-parametric Dunnet's test. The significant difference between the control group and the positive control material group was assayed by the non-parametric Wilcoxon's test.

human EDG-2 = biological target: T1, human EDG-2 (Homo sapiens, UniProt Q92633); experiment: Inhibitory activity on LPA-induced elevation of intracellular Ca2+ level; format: cell-based; details: 50% inhibition of elevation of intracellular Ca2+ level by LPA, human EDG-2/HepG2 cells, fura-2
T1 construct: cDNA of the cloned human EDG-2 was introduced into pEFneo, which is an animal expression vector; expressed in transfected cells; host or cells: HepG2
Procedure, shortened: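 Stably transfected HepG2 cells loaded with fura-2/AM (45 min, room temperature) in 0.1% BSA HEPES buffer. Test compound added before LPA, and the LPA-evoked intracellular Ca2+ rise measured fluorometrically. IC50 for inhibition derived.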

[2] = tested on: ovarian carcinoma cells (SKOV3); experiment: Inhibitory activity against BrdU incorporation, LPA-stimulated ovarian carcinoma cells; format: cell-based, human; details: SKOV3, LPA 3 μM, FIG. 2B
Method: (§1) Human brain tumor cells (U87 MG) and ovarian carcinoma cells (SKOV3) suspended in serum-free DMEM were plated on a 96-well plate. 24 hours later, Compound 115 and LPA (3 μM) were added and the mixture was cultured for 16 hours, followed by the BrdU addition. Culture was continued for 3 hours from the addition of BrdU. Thereafter, the incorporation of BrdU into the cells was assayed based on the absorbance at 450 nm using the Cell proliferation ELISA system (RPN250, Amersham LIFE SCIENCE).

[3] = Solubility in water (remark); format: physicochemical; details: white powder
Human EDG-2/HepG2 cells = experiment: Inhibitory activity on LPA-accelerated [3H] thymidine incorporation (cell proliferation); format: cell-based; details: 50% inhibition of LPA-induced increase of [3H] thymidine incorporation
Procedure, shortened: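 HepG2 cells stably overexpressing human EDG-2, serum-starved 24 h, received compound immediately before LPA and were cultured 16 h, followed by 8 h [3H]thymidine labelling. LPA-stimulated proliferation was taken as incorporation in LPA wells minus LPA-free wells.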

[4] = tested on: Human brain tumor cells (U87 MG); experiment: Inhibitory activity against BrdU incorporation, LPA-stimulated brain tumor cells; format: cell-based; details: LPA 3 μM, FIG. 2A
Method: as §1

T1 sequence (Q92633 whole entry): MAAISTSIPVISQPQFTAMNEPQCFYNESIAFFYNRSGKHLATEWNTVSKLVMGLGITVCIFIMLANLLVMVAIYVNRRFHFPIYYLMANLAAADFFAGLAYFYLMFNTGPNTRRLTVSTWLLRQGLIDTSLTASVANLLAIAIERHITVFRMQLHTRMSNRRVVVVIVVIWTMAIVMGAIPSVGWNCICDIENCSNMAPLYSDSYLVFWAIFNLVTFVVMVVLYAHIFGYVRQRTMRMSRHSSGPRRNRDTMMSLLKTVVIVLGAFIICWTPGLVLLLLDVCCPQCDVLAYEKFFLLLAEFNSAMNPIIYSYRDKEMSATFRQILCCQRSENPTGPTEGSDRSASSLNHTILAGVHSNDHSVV

With `COC(=O)CCSCc1ccc(-c2onc(C)c2NC(=O)OC(C)c2ccccc2Cl)cc1` (centres unmarked) [Compound 115, Methyl 3-({4-[4-({[1-(2-chlorophenyl)ethoxy]carbonyl}amino)-3-methyl-5-isoxazolyl]-benzyl}sulfanyl)propanoate] the Score of lesion ([1]; 20 mg/kg twice/day p.o., 3 days after lactic acid injection) was 2.6 ± 0.8, the Score of lesion ([1]; 20 mg/kg twice/day p.o., 7 days after lactic acid injection) was 4.3 ± 1.0 and the Score of lesion ([1]; 20 mg/kg twice/day p.o., 14 days after lactic acid injection) was 6.9 ± 1.4. The Score of lesion ([1]; 60 mg/kg twice/day p.o., 7 days after lactic acid injection) was 1.9 ± 0.5, the “Progress of lesions in the feet and legs” value ([1]; dose of 60 mg/kg) was “inhibited the progress of lesions” and the “Progress of lesion versus control group” value ([1]; repeated administration of 20 mg/kg for 14 days) was “equivalent level of progress with the control group”. The IC50 (human EDG-2) was 1000 to 3000 nM, the “Concentration at which proliferation (BrdU incorporation) was inhibited in a concentration dependent manner” value [2] was at least 0.3 µM and the “Solubility in water” value [3] was “poor solubility in water”. The IC50 (Human EDG-2/HepG2 cells) was 10 to 30 nM and the “Concentration at which proliferation (BrdU incorporation) was inhibited in a concentration dependent manner” value [4] was at least 0.3 µM.

— patent publication US6964975B2, “Isoxazole and thiazole compounds and use thereof as medicine” (Kirin Beer Kabushiki Kaisha, priority 2000, dated 2005)
